Source: PubChem BioAssay AID1845195 (Molecular Pharmacology Branch, DTP, NCI, 2023)
pIC50: −log10 of the molar value.

System: 156681-154-R-J1 tumor spheroid viability
Test: Anticancer human tumor 156681-154-R-J1 patient-derived melanoma cell line growth inhibition
Settings: spheroids with HUVEC and MSC; for pIC50: curve of first compound; for viability, T/C: stronger effect = lower value
Method in brief: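 Complex spheroids of malignant cells with endothelial cells and mesenchymal stem cells; agents alone or combined, from near clinical Cmax (or 10 microM if unknown) down in half-log steps, 0.25% DMSO final.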

[1] = second compound 30 pM, first compound 0.0316 µM
[2] = second compound 30 pM, first compound 0.1 µM
[3] = second compound 30 pM, first compound 0.316 µM
[4] = second compound 30 pM, first compound 1 µM
[5] = second compound 30 pM, first compound 3.16 µM
[6] = second compound 30 pM, first compound 10 µM
[7] = second compound 94.9 pM, first compound 0.0316 µM
[8] = second compound 94.9 pM, first compound 0.1 µM
[9] = second compound 94.9 pM, first compound 0.316 µM
[10] = second compound 94.9 pM, first compound 1 µM
[11] = second compound 94.9 pM, first compound 3.16 µM
[12] = second compound 94.9 pM, first compound 10 µM
[13] = second compound 0.0003 µM, first compound 0.0316 µM
[14] = second compound 0.0003 µM, first compound 0.1 µM
[15] = second compound 0.0003 µM, first compound 0.316 µM
[16] = second compound 0.0003 µM, first compound 1 µM
[17] = second compound 0.0003 µM, first compound 3.16 µM
[18] = second compound 0.0003 µM, first compound 10 µM
[19] = second compound 0.000949 µM, first compound 0.0316 µM
[20] = second compound 0.000949 µM, first compound 0.1 µM
[21] = second compound 0.000949 µM, first compound 0.316 µM
[22] = second compound 0.000949 µM, first compound 1 µM
[23] = second compound 0.000949 µM, first compound 3.16 µM
[24] = second compound 0.000949 µM, first compound 10 µM
[25] = second compound 0.003 µM, first compound 0.0316 µM
[26] = second compound 0.003 µM, first compound 0.1 µM
[27] = second compound 0.003 µM, first compound 0.316 µM
[28] = second compound 0.003 µM, first compound 1 µM
[29] = second compound 0.003 µM, first compound 3.16 µM
[30] = second compound 0.003 µM, first compound 10 µM
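Further: spheroids exposed to compounds for 7 days before readout.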
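Wherever viability, T/C is given: percent of vehicle control viability where 100% = DMSO-treated spheroids.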

| SMILES | pIC50 (second compound 30 pM) | pIC50 (second compound 94.9 pM) | pIC50 (second compound 0.0003 µM) | pIC50 (second compound 0.000949 µM) | pIC50 (second compound 0.003 µM) | viability, T/C [1] | viability, T/C [2] | viability, T/C [3] | viability, T/C [4] | viability, T/C [5] | viability, T/C [6] | viability, T/C [7] | viability, T/C [8] | viability, T/C [9] | viability, T/C [10] | viability, T/C [11] | viability, T/C [12] | viability, T/C [13] | viability, T/C [14] | viability, T/C [15] | further results |
| --- | --- | --- | --- | --- | --- | --- | --- | --- | --- | --- | --- | --- | --- | --- | --- | --- | --- | --- | --- | --- | --- |
| CC(C)n1c(=O)n(C)c2cnc3cc(F)c(-c4ccc(OCCCN5CCCCC5)nc4)cc3c21 + COc1cc2c(cc1O)CCNC21CSC2c3c(OC(C)=O)c(C)c4c(c3C(COC1=O)N1C(O)C3Cc5cc(C)c(OC)c(O)c5C(C21)N3C)OCO4 | < 5.00 | < 5.00 | 5.32 | > 7.50 | > 7.50 | 101% | 120% | 87.2% | 105% | 104% | 90.3% | 106% | 91.1% | 103% | 95% | 108% | 73.5% | 66.9% | 63.5% | 61.7% | viability, T/C [16]: 65.7%; viability, T/C [17]: 85.7%; viability, T/C [18]: 15.9%; viability, T/C [19]: 6.13%; viability, T/C [20]: 2.85%; viability, T/C [21]: 4.29%; viability, T/C [22]: 3.82%; viability, T/C [23]: 4.41%; viability, T/C [24]: 0.77%; viability, T/C [25]: 0.23%; viability, T/C [26]: 0.23%; viability, T/C [27]: 0.24%; viability, T/C [28]: 0.22%; viability, T/C [29]: 0.18%; viability, T/C [30]: 0.24% |
| CC1COCCN1c1cc(-c2ccnn2C)c2ccnc(-c3ccn[nH]3)c2n1 (stereo not given) + COc1cc2c(cc1O)CCNC21CSC2c3c(OC(C)=O)c(C)c4c(c3C(COC1=O)N1C(O)C3Cc5cc(C)c(OC)c(O)c5C(C21)N3C)OCO4 | 6.72 | 6.98 | > 7.50 | > 7.50 | > 7.50 | 96.4% | 62.2% | 39.9% | 29.9% | 27.3% | 22.6% | 78.7% | 50.7% | 33.6% | 30% | 22.1% | 21.9% | 49.5% | 41.1% | 23.9% | viability, T/C [16]: 20.6%; viability, T/C [17]: 21.3%; viability, T/C [18]: 20.1%; viability, T/C [19]: 6.51%; viability, T/C [20]: 2.7%; viability, T/C [21]: 4.04%; viability, T/C [22]: 3.29%; viability, T/C [23]: 0.29%; viability, T/C [24]: 0.17%; viability, T/C [25]: 0.23%; viability, T/C [26]: 0.22%; viability, T/C [27]: 0.16%; viability, T/C [28]: 0.13%; viability, T/C [29]: 0.14%; viability, T/C [30]: 0.25% |
| COc1cc(C)[nH]c(=O)c1CN1CCc2c(Cl)cc(C(OC)C3COC3)c(Cl)c2C1=O (stereo not given) + COc1cc2c(cc1O)CCNC21CSC2c3c(OC(C)=O)c(C)c4c(c3C(COC1=O)N1C(O)C3Cc5cc(C)c(OC)c(O)c5C(C21)N3C)OCO4 | < 5.00 | < 5.00 | < 5.00 | > 7.50 | > 7.50 | 88.8% | 112% | 94.9% | 93.3% | 92.6% | 120% | 90.9% | 98.3% | 106% | 116% | 106% | 98.1% | 77.9% | 82.3% | 87.7% | viability, T/C [16]: 80.1%; viability, T/C [17]: 73.3%; viability, T/C [18]: 67.2%; viability, T/C [19]: 6.81%; viability, T/C [20]: 5.99%; viability, T/C [21]: 5.88%; viability, T/C [22]: 5.47%; viability, T/C [23]: 3.42%; viability, T/C [24]: 2.93%; viability, T/C [25]: 0.33%; viability, T/C [26]: 0.34%; viability, T/C [27]: 0.33%; viability, T/C [28]: 0.41%; viability, T/C [29]: 0.38%; viability, T/C [30]: 0.48% |
